Data published in patent US9850283B2, “Macrocyclic inhibitors of the PD-1/PD-L1 and CD80(B7-1)/PD-L1 protein/protein interactions” (BRISTOL-MYERS SQUIBB COMPANY, priority 2013, dated 2017).
Positions of bridges follow the written chain, without caps; N, C: chain ends. Non-standard residues stand in square brackets, D forms with d. Residues, ends and D or L forms follow the SMILES beside them. ξ: configuration not given here. Phe(4-Br) = N[C@@H](Cc1ccc(Br)cc1)C(=O)O; Phe(4-Me) = Cc1ccc(C[C@H](N)C(=O)O)cc1; ξPro(4R-OH) = O=C(O)C1C[C@@H](O)CN1; 4Pal = N[C@@H](Cc1ccncc1)C(=O)O; NMeNle = CCCC[C@H](NC)C(=O)O; NMeA = CN[C@@H](C)C(=O)O; Nle = CCCC[C@H](N)C(=O)O; ξPip = O=C(O)C1CCCCN1; ξP = O=C(O)C1CCCN1; Sar = CNCC(=O)O

Each compound was assayed against T1, Human PD-L1/PD-1 (Homo sapiens, UniProt Q9NZQ7) (assay: HTRF PD-1-Ig/PD-L1-His binding assay (human PD-L1)). Conditions: Table 6; read-out: HTRF Human PD-L1/PD-1 Binding Assay IC50.
T1 construct: made in house; host or cells: HEK293T
T1 sequence (Q9NZQ7 with tags, fused parts or gaps): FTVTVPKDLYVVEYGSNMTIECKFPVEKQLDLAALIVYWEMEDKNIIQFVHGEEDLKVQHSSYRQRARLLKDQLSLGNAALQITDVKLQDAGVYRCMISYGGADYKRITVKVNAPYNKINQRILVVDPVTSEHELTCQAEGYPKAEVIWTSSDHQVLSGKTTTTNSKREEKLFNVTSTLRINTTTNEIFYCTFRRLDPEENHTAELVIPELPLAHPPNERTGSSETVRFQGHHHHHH
Description: The ability of the macrocyclic peptides of the present disclosure to bind to PD-L1 was investigated using a PD-1/PD-L1 Homogenous Time-Resolved Fluorescence (HTRF) binding assay.
Homogenous Time-Resolved Fluorescence (HTRF) Assays of Binding of Soluble PD-1 to Soluble PD-L1. Soluble PD-1 and soluble PD-L1 refers to proteins with carboxyl-end truncations that remove the transmembrane-spanning regions and are fused to heterologous sequences, specifically the Fc portion of the human immunoglobuling G sequence (Ig) or the hexahistidine epitope tag (His). All binding studies were performed in an HTRF assay buffer consisting of dPBS supplemented with 0.1% (w/v) bovine serum albumin and 0.05% (v/v) Tween-20. […] PD-L1 fusion proteins from either human, cynomologous macaques, or mouse were used. HTRF detection was achieved using europium crypate-labeled anti-Ig monoclonal antibody (1 nM final) and allophycocyanin (APC) labeled anti-His monoclonal antibody (20 nM final). Antibodies were diluted in HTRF detection buffer and 5 μl was dispensed on top of binding reaction.
`CCCC[C@H]1C(=O)N(C)[C@@H](CCCC)C(=O)N[C@@H](CC(C)C)C(=O)N[C@H](C(=O)NCC(N)=O)CSCC(=O)N[C@@H](Cc2ccccc2)C(=O)N(C)[C@@H](C)C(=O)N[C@@H](CC(N)=O)C(=O)N2CCC[C@H]2C(=O)N[C@@H](Cc2cnc[nH]2)C(=O)N[C@@H](CCCNC(=N)N)C(=O)N[C@@H](CO)C(=O)N[C@@H](Cc2c[nH]c3ccccc23)C(=O)N[C@@H](CCCNC(=N)N)C(=O)N[C@@H](Cc2c[nH]c3ccccc23)C(=O)N1C` [Compound No. 3] ({CH2CO}-F[NMeA]NPHRSWRW[NMeNle][NMeNle]LCG-NH2; thioether N-14) was tested, and the IC50 was 13 nM.

Same assay, conditions: Table 8, Compound No. 1 variant macrocyclic peptides; read-out: HTRF Human PD-L1/PD-1 Binding Assay IC50
For `CCCC[C@H]1C(=O)N(C)[C@@H](CCCC)C(=O)N[C@@H](CCCNC(=N)N)C(=O)N[C@H](C(=O)NCC(N)=O)CSCC(=O)N[C@@H](Cc2ccccc2)C(=O)N(C)[C@@H](C)C(=O)N[C@@H](C)C(=O)N2CCCC2C(=O)N[C@@H](Cc2cnc[nH]2)C(=O)N[C@@H](CC(C)C)C(=O)N(C)CC(=O)N[C@@H](Cc2c[nH]c3ccccc23)C(=O)N[C@@H](CO)C(=O)N[C@@H](Cc2c[nH]c3ccccc23)C(=O)N1C` (stereo partly drawn) [Compound No. 8] ({CH2CO}-F[NMeA]A[ξP]HL[Sar]WSW[NMeNle][NMeNle]RCG-NH2; thioether N-14), the IC50 was 31 nM. Compound `CCCC[C@H]1C(=O)N(C)[C@@H](CCCC)C(=O)N[C@@H](CCCNC(=N)N)C(=O)N[C@H](C(=O)NCC(N)=O)CSCC(=O)N[C@@H](Cc2ccccc2)C(=O)N(C)[C@@H](C)C(=O)N[C@@H](CC(N)=O)C(=O)N2CCCC2C(=O)N[C@@H](Cc2cnc[nH]2)C(=O)N[C@@H](C)C(=O)N(C)CC(=O)N[C@@H](Cc2c[nH]c3ccccc23)C(=O)N[C@@H](CO)C(=O)N[C@@H](Cc2c[nH]c3ccccc23)C(=O)N1C` (stereo partly drawn) [Compound No. 11] ({CH2CO}-F[NMeA]N[ξP]HA[Sar]WSW[NMeNle][NMeNle]RCG-NH2; thioether N-14) has an IC50 of 31 nM. Work on `CCCC[C@H]1C(=O)N(C)[C@@H](CCCC)C(=O)N[C@@H](CCCNC(=N)N)C(=O)N[C@H](C(=O)NCC(N)=O)CSCC(=O)N[C@@H](Cc2ccccc2)C(=O)N(C)[C@@H](C)C(=O)N[C@@H](CC(N)=O)C(=O)N2CCCC2C(=O)N[C@@H](Cc2cnc[nH]2)C(=O)N[C@@H](CC(C)C)C(=O)N(C)CC(=O)N[C@@H](C)C(=O)N[C@@H](CO)C(=O)N[C@@H](Cc2c[nH]c3ccccc23)C(=O)N1C` (stereo partly drawn) [Compound No. 15] ({CH2CO}-F[NMeA]N[ξP]HL[Sar]ASW[NMeNle][NMeNle]RCG-NH2; thioether N-14) yielded an IC50 of over 30000 nM. Work on `CCCC[C@@H]1NC(=O)[C@H](Cc2c[nH]c3ccccc23)NC(=O)[C@H](CO)NC(=O)[C@H](Cc2c[nH]c3ccccc23)NC(=O)CN(C)C(=O)[C@H](CC(C)C)NC(=O)[C@H](Cc2cnc[nH]2)NC(=O)C2CCCN2C(=O)[C@H](CC(N)=O)NC(=O)[C@H](C)N(C)C(=O)[C@H](Cc2ccccc2)NC(=O)CSC[C@@H](C(=O)NCC(N)=O)NC(=O)[C@H](CCCNC(=N)N)NC(=O)[C@H](CCCC)N(C)C1=O` (stereo partly drawn) [Compound No. 18] ({CH2CO}-F[NMeA]N[ξP]HL[Sar]WSW[Nle][NMeNle]RCG-NH2; thioether N-14) yielded an IC50 of 36 nM. With `CCCC[C@@H]1NC(=O)[C@H](CCCC)N(C)C(=O)[C@H](Cc2c[nH]c3ccccc23)NC(=O)[C@H](CO)NC(=O)[C@H](Cc2c[nH]c3ccccc23)NC(=O)CN(C)C(=O)[C@H](CC(C)C)NC(=O)[C@H](Cc2cnc[nH]2)NC(=O)C2CCCN2C(=O)[C@H](CC(N)=O)NC(=O)[C@H](C)N(C)C(=O)[C@H](Cc2ccccc2)NC(=O)CSC[C@@H](C(=O)NCC(N)=O)NC(=O)[C@H](CCCNC(=N)N)NC1=O` (stereo partly drawn) [Compound No. 20] ({CH2CO}-F[NMeA]N[ξP]HL[Sar]WSW[NMeNle][Nle]RCG-NH2; thioether N-14) the IC50 was 8460 nM. `CCCC[C@H]1C(=O)N(C)[C@@H](C)C(=O)N[C@@H](CCCNC(=N)N)C(=O)N[C@H](C(=O)NCC(N)=O)CSCC(=O)N[C@@H](Cc2ccccc2)C(=O)N(C)[C@@H](C)C(=O)N[C@@H](CC(N)=O)C(=O)N2CCCC2C(=O)N[C@@H](Cc2cnc[nH]2)C(=O)N[C@@H](CC(C)C)C(=O)N(C)CC(=O)N[C@@H](Cc2c[nH]c3ccccc23)C(=O)N[C@@H](CO)C(=O)N[C@@H](Cc2c[nH]c3ccccc23)C(=O)N1C` (stereo partly drawn) [Compound No. 21] ({CH2CO}-F[NMeA]N[ξP]HL[Sar]WSW[NMeNle][NMeA]RCG-NH2; thioether N-14) gave an IC50 of 21 nM. `CCCC[C@H]1C(=O)N(C)[C@@H](CCCC)C(=O)N[C@@H](CCCNC(=N)N)C(=O)N[C@H](C(N)=O)CSCC(=O)N[C@@H](Cc2ccccc2)C(=O)N(C)[C@@H](C)C(=O)N[C@@H](CC(N)=O)C(=O)N2CCCC2C(=O)N[C@@H](Cc2cnc[nH]2)C(=O)N[C@@H](CC(C)C)C(=O)N(C)CC(=O)N[C@@H](Cc2c[nH]c3ccccc23)C(=O)N[C@@H](CO)C(=O)N[C@@H](Cc2c[nH]c3ccccc23)C(=O)N1C` (stereo partly drawn) [Compound No. 24] ({CH2CO}-F[NMeA]N[ξP]HL[Sar]WSW[NMeNle][NMeNle]RC-NH2; thioether N-14) was tested, and the IC50 was 9 nM. In the case of `CCCC[C@H]1C(=O)N(C)[C@@H](CCCC)C(=O)N[C@@H](CCCNC(=N)N)C(=O)N[C@@H](C(=O)NCC(N)=O)CSCC(=O)N[C@@H](Cc2c[nH]c3ccccc23)C(=O)N(C)[C@@H](C)C(=O)N[C@@H](CC(N)=O)C(=O)N2CCC[C@H]2C(=O)N[C@@H](Cc2cnc[nH]2)C(=O)N[C@@H](CC(C)C)C(=O)N(C)CC(=O)N[C@@H](Cc2c[nH]c3ccccc23)C(=O)N[C@@H](CO)C(=O)N[C@@H](Cc2c[nH]c3ccccc23)C(=O)N1C` [Compound No. 25] ({CH2CO}-W[NMeA]NPHL[Sar]WSW[NMeNle][NMeNle]R[dC]G-NH2; thioether N-14), the IC50 is reported as 27 nM. Compound `CCCC[C@H]1C(=O)N(C)[C@@H](CCCC)C(=O)N[C@@H](CCCNC(=N)N)C(=O)N[C@H](C(=O)NCC(N)=O)CSCC(=O)N[C@@H](Cc2ccc(Br)cc2)C(=O)N(C)[C@@H](C)C(=O)N[C@@H](CC(N)=O)C(=O)N2CCC[C@H]2C(=O)N[C@@H](Cc2cnc[nH]2)C(=O)N[C@@H](CC(C)C)C(=O)N(C)CC(=O)N[C@@H](Cc2c[nH]c3ccccc23)C(=O)N[C@@H](CO)C(=O)N[C@@H](Cc2c[nH]c3ccccc23)C(=O)N1C` [Compound No. 34] ({CH2CO}-[Phe(4-Br)][NMeA]NPHL[Sar]WSW[NMeNle][NMeNle]RCG-NH2; thioether N-14) has an IC50 of 4 nM. `CCCC[C@H]1C(=O)N(C)[C@@H](CCCC)C(=O)N[C@@H](CCCNC(=N)N)C(=O)N[C@H](C(=O)NCC(N)=O)CSCC(=O)N[C@@H](Cc2ccc(C)cc2)C(=O)N(C)[C@@H](C)C(=O)N[C@@H](CC(N)=O)C(=O)N2CCC[C@H]2C(=O)N[C@@H](Cc2cnc[nH]2)C(=O)N[C@@H](CC(C)C)C(=O)N(C)CC(=O)N[C@@H](Cc2c[nH]c3ccccc23)C(=O)N[C@@H](CO)C(=O)N[C@@H](Cc2c[nH]c3ccccc23)C(=O)N1C` [Compound No. 36] ({CH2CO}-[Phe(4-Me)][NMeA]NPHL[Sar]WSW[NMeNle][NMeNle]RCG-NH2; thioether N-14) was tested, and the IC50 was 9 nM. In the case of `CCCC[C@H]1C(=O)N(C)[C@@H](CCCC)C(=O)N[C@@H](CCCNC(=N)N)C(=O)N[C@H](C(=O)NCC(N)=O)CSCC(=O)N[C@@H](Cc2ccncc2)C(=O)N(C)[C@@H](C)C(=O)N[C@@H](CC(N)=O)C(=O)N2CCC[C@H]2C(=O)N[C@@H](Cc2cnc[nH]2)C(=O)N[C@@H](CC(C)C)C(=O)N(C)CC(=O)N[C@@H](Cc2c[nH]c3ccccc23)C(=O)N[C@@H](CO)C(=O)N[C@@H](Cc2c[nH]c3ccccc23)C(=O)N1C` [Compound No. 39] ({CH2CO}-[4Pal][NMeA]NPHL[Sar]WSW[NMeNle][NMeNle]RCG-NH2; thioether N-14), the IC50 is reported as 33 nM. For `CCCC[C@H]1C(=O)N(C)[C@@H](CCCC)C(=O)N[C@@H](CCCNC(=N)N)C(=O)N[C@H](C(=O)NCC(N)=O)CSCC(=O)N[C@@H](Cc2ccccc2)C(=O)N(C)[C@@H](C)C(=O)N[C@H](CC(N)=O)C(=O)N2CCC[C@H]2C(=O)N[C@@H](Cc2c[nH]cn2)C(=O)N[C@@H](CC(C)C)C(=O)N(C)CC(=O)N[C@@H](Cc2c[nH]c3ccccc23)C(=O)N[C@@H](CO)C(=O)N[C@@H](Cc2c[nH]c3ccccc23)C(=O)N1C` [Compound No. 42] ({CH2CO}-F[NMeA][dN]PHL[Sar]WSW[NMeNle][NMeNle]RCG-NH2; thioether N-14), the IC50 was over 10000 nM. In the case of `CCCC[C@H]1C(=O)N(C)[C@@H](CCCC)C(=O)N[C@@H](CCCNC(=N)N)C(=O)N[C@H](C(=O)NCC(N)=O)CSCC(=O)N[C@@H](Cc2ccccc2)C(=O)N(C)[C@@H](C)C(=O)N[C@@H](CC(N)=O)C(=O)N2CCCCC2C(=O)N[C@@H](Cc2cnc[nH]2)C(=O)N[C@@H](CC(C)C)C(=O)N(C)CC(=O)N[C@@H](Cc2c[nH]c3ccccc23)C(=O)N[C@@H](CO)C(=O)N[C@@H](Cc2c[nH]c3ccccc23)C(=O)N1C` (stereo partly drawn) [Compound No. 44] ({CH2CO}-F[NMeA]N[ξPip]HL[Sar]WSW[NMeNle][NMeNle]RCG-NH2; thioether N-14), the IC50 is reported as 34 nM. `CCCC[C@H]1C(=O)N(C)[C@@H](CCCC)C(=O)N[C@@H](CCCNC(=N)N)C(=O)N[C@H](C(=O)NCC(N)=O)CSCC(=O)N[C@@H](Cc2ccccc2)C(=O)N(C)[C@@H](C)C(=O)N[C@@H](CC(N)=O)C(=O)N2C[C@H](O)CC2C(=O)N[C@@H](Cc2cnc[nH]2)C(=O)N[C@@H](CC(C)C)C(=O)N(C)CC(=O)N[C@@H](Cc2c[nH]c3ccccc23)C(=O)N[C@@H](CO)C(=O)N[C@@H](Cc2c[nH]c3ccccc23)C(=O)N1C` (stereo partly drawn) [Compound No. 47] ({CH2CO}-F[NMeA]N[ξPro(4R-OH)]HL[Sar]WSW[NMeNle][NMeNle]RCG-NH2; thioether N-14) gave an IC50 of 27 nM.
